From patent US7947854B2, “Bis-cationic compounds and use thereof” (The University of Sydney, priority 2003, dated 2011)
Marks after values point to notes of the source that are not given here.

Columns and labels:
Format in all cases: biochemical, Cryptococcus neoformans H99
Conditions in all cases: modifier 10 mM (Triton X-100 0.1% w/v)
[1] = system: cytosolic phospholipase B (PLB activity); experiment: Radiometric assay, cytosolic PLB activity
Experimental: (§1) Fungal isolates and media. […] Isolate H99 was kindly supplied by Dr. Gary Cox (Duke University Medical Center, Durham, N.C., USA), and subcultured onto Sabouraud dextrose agar (SDA) at 30° C.
(§2) Cellular disruption to prepare membrane and cytosolic fractions. The cell pellet from the preparation of the supernatant, above, was also frozen at −70° C. After washing twice with imidazole buffer, it was disrupted in the presence of a protease inhibitor cocktail (P 8215 for fungal and yeast cells; 4-(2-aminoethyl)benzenesulfonyl fluoride hydrochloride, 100 mM, 1,10-phenanthroline, 500 mM, pepstatin A, 2.2 mM, E-64, 1.4 mM; Sigma) in a MiniBeadbeater-8 Cell Disrupter (MBB-8; Daintree Scientific, Tasmania, Australia) for three cycles of 1 min, alternating with a 1 min cooling period on ice. The homogenate was centrifuged at 14,000 g for 15 min to obtain the membrane (pellet) and the cytosolic (supernatant) fractions.
(§3) Radiometric assay method for phospholipases. Enzyme activities were measured as described previously in a final volume of 125 μL at 37° C. For the determination of secreted PLB activity, carrier dipalmitoyl phosphatidylcholine (DPPC, final concentration 800 μM) and 1,2-di[1-^14C] palmitoyl phosphatidylcholine (20,000 dpm) were dried under nitrogen and suspended in 125 mM imidazole acetate buffer (assay buffer, pH 4.0) by sonication using a Branson 450 sonifier. The reaction time was 22 min, using 1 μg total protein and PLB activity was determined by the rate of decrease of the radiolabelled PC substrate, with appearance of the label in free fatty acid. This assay also simultaneously allows for the determination of phospholipase A, C and D activities. These activities were measured by the appearance of radiolabel from PC in Lyso PC, diacylglycerol and phosphatidic acid, respectively.
(§4) All reactions were terminated by adding 0.5 mL of chloroform:methanol (2:1 v/v). The reaction products were extracted by the method as disclosed in Bligh, E. C. and W. J. Dyer. 1959 ‘A rapid method of total lipid extraction and purification.’ Can. J. Biochem. Physiol. 37:911-917, separated by TLC and quantified as previously described. In the case of PLC activity, the TLC plates were developed in petroleum ether (BP 60-80° C.): diethyl ether: acetic acid (90:15:1, v/v/v) instead of chloroform:methanol:water (65:25:4, v/v/v).
(§5) All experiments were carried out in duplicate or triplicate. The effects of pH on the various phospholipase activities were measured using 50 mM final concentration of imidazole-acetate buffer (pH range 3-5), MES buffer (pH range 6-8) and glycine buffer (pH 9-10). Controls for non-enzymic breakdown of substrates were included at all pH values. Cations, Triton X-100 and metal chelators were made up as stock solutions in water and diluted to the final concentration in the appropriate assay buffer.
(§6) Preparation of inhibitors and use in assays. The following compounds were tested (for structures, see FIG. 2): compound 1, 1,12-bis(tributylphosphonium)dodecane dibromide (Fluka AG, Buchs, Switzerland); compound 2, 1,10-bis(tributylammonium)-decane dibromide; compound 3, 1,12-bis(tributylammonium)do-decane dibromide (both synthesised in-house); compound 4, 1,10-bis(trimethylammonium)decane dibromide [“decamethonium”] (Sigma, St. Louis Mo., USA). All compounds were prepared as stock solutions of 700 μM in assay buffer containing 5 mM EDTA, which was then diluted serially with buffer to obtain solutions of 70, 7, 0.7 and 0.07 μM. In each assay, 45 μL of these solutions was used, and the final volume of 125 μL was made up of substrate, enzyme and buffer. The radiometric assay was carried out as above.

[2] = system: cytosolic phospholipase B (LPL/LPTA activities); experiment: Radiometric assay, cytosolic LPL/LPTA activities
Experimental: as §1, §2
(§7) Secreted LPL and LPTA activities were measured simultaneously in a reaction mixture containing 1-[^14C]palmitoyl lyso-PC (25,000 dpm) and carrier lyso-PC (final concentration 200 μM) in assay buffer. The reaction time was […] with 1 μg of total protein and LPL activity was measured by the rate of loss of 1-[^14C]palmitoyl lyso-PC with release of radiolabelled fatty acids. LPTA activity was estimated from the rate of formation of radiolabelled PC.
as §4, §5
(§8) Preparation of inhibitors and use in assays. The following compounds were tested (for structures, see FIG. 2): compound 1, 1,12-bis(tributylphosphonium)dodecane dibromide (Fluka AG, Buchs, Switzerland); compound 2, 1,10-bis(tributylammonium)-decane dibromide; compound 3, 1,12-bis(tributylammonium)do-decane dibromide (both synthesised in-house); compound 4, 1,10-bis(trimethylammonium)decane dibromide [“decamethonium”] (Sigma, St. Louis Mo., USA). All compounds were prepared as stock solutions of 700 μM in assay buffer containing 5 mM EDTA, which was then diluted serially with buffer to obtain solutions of 70, 7, 0.7 and 0.07 μM. In each assay, 45 μL of these solutions was used, and the final volume of 125 μL was made up of substrate, enzyme and buffer. The radiometric assay was carried out as above. Inhibition was calculated as the percent of substrates (DPPC or Lyso-PC) remaining in the case of PLB and LPL activities, or of DPPC produced, in the case of the LPTA activity. The amounts converted, or produced, in the inhibitor-free control were normalised to 100%, and the inhibition calculated against it. All assays were done in triplicate.
(§9) Under these conditions only PLB, LPL and LPTA activities (both secreted and cell-associated) were measured. Initially, compounds deemed to be potential inhibitors were assayed at 25 and 250 μM.

[3] = system: membrane-associated phospholipase B (PLB activity); experiment: Radiometric assay, membrane-associated PLB activity
Experimental: as §1, §2, §3, §4, §5, §6

[4] = system: membrane-associated phospholipase B (LPL/LPTA activities); experiment: Radiometric assay, membrane-associated LPL/LPTA activities
Experimental: as §1, §2, §7, §4, §5, §8, §9

Row | Molecule | Cytosolic PLB activity, percentage of the control ([1]; pH 4.0) | Cytosolic PLB activity, percentage of the control ([1]; pH 7.0) | Cytosolic LPL activity, percentage of the control ([2]; pH 4.0) [%] | Cytosolic LPTA activity, percentage of the control ([2]; pH 4.0) [%] | Cytosolic LPL activity, percentage of the control ([2]; pH 7.0) [%] | Cytosolic LPTA activity, percentage of the control ([2]; pH 7.0) [%] | Membrane-associated PLB activity, percentage of the control ([3]; pH 4.0) [%] | Membrane-associated PLB activity, percentage of the control ([3]; pH 7.0) | Membrane-associated LPL activity, percentage of the control ([4]; pH 4.0) [%] | Membrane-associated LPTA activity, percentage of the control ([4]; pH 4.0) [%] | Membrane-associated LPL activity, percentage of the control ([4]; pH 7.0) | Membrane-associated LPTA activity, percentage of the control ([4]; pH 7.0)
1 | [Ca+2] [Calcium] | 100% | 591* % | 100 | 100 | 236 | 206 | 83 | 533* % | 100 | 96 | 166* % | 140* %
2 | O=C(O)CN(CCN(CC(=O)O)CC(=O)O)CC(=O)O [EDTA, ethylenediaminetetraacetic acid] | 100% | 100% | 100 | 100 | 30 | 32 | 87 | 67% | 98 | 94 | 96% | 100%
3 | O=C(O)CN(CCOCCOCCN(CC(=O)O)CC(=O)O)CC(=O)O [EGTA, ethyleneglycoldiamine tetraacetic acid] | 100% | 163% | 86 | 88 | 26 | 29 | 77 | 200% | 100 | 90 | 100% | 100%
4 | [Cl][Fe]([Cl])[Cl] [FeCl3] | 79% | 61% | 81 | 78 | 22 | 21 | 92 | 2* % | 97 | 75 | 61* % | 45* %
5 | [Mg+2] [Magnesium] | 100% | 477* % | 73 | 70 | 96 | 85 | 79 | 467* % | 97 | 91 | 145* % | 123* %
6 | Triton X-100 | 54* % | 59% | 62 | 39 | 0.9 | 0 | 19 | 33* % | 71 | 52 | 4* % | 2* %
